Laboratory results from patent US12295938B2, “Composition for treating castration-resistant prostate cancer, comprising quassinoids” (SAMSUNG LIFE PUBLIC WELFARE FOUNDATION, priority 2019, dated 2025).
Read-outs that look alike come from different tables or passages of the source. Blank lines part the entries; values can stand above or below the compound they belong to.

Experiments:
Type in all cases: cell-based
[1] = test system: hormone-dependent AR transcriptional activity; assay: MMTV-LUC reporter assay in LNCaP cells, hormone-dependent AR transcriptional activity; settings: Homo sapiens, read-out: IC50 (nM) DHT+
[2] = test system: AR-V7 transcriptional activity; assay: MMTV-LUC luciferase reporter assay in 22RV1 cells, DHT− (screening and IC50); settings: for activity at 0.1 µM / activity at 1 µM / activity at 10 µM / IC50: Homo sapiens; for activity at 0.1 µM / activity at 1 µM / activity at 10 µM / IC50 / MMTV-LUC activity (%) DHT−: 22RV1 cells; for activity at 0.1 µM / activity at 1 µM / activity at 10 µM / MMTV-LUC activity (%) DHT−: no DHT, control = 100; for IC50: AR-V7 transcriptional activity; for potency as inhibitor of AR/AR-V7 transcriptional activity compared with ailanthone: in both CRPC 22RV1 cells and androgen-dependent LNCaP cells
Protocol: (§1) A library of antimalarial agents was screened using a luciferase reporter assay to measure changes in AR/AR-V7 transcriptional activity.
(§2) Screening was made primarily with 10 μM of each drug.

22RV1 cells = assay: MTT cell growth inhibition assay, 22RV1; settings: Homo sapiens, read-out: IC50 (22RV1 cell growth)
Protocol: In brief, 22RV1 cells were seeded at a density of 1×10^4 cells/well into 96-well plates and treated with each drug at 6 concentrations ranging from 5 nM to 200 nM for 72 hours. Afterwards, an MTT dye solution and a solubilization solution/stop mix were added according to an MTT assay method, followed by reading absorbance at 570 nm to analyze cell viability and IC50.

[3] = test system: AR transcriptional activity; assay: MMTV-LUC luciferase reporter assay in 22RV1 cells, DHT+ (screening and IC50); settings: for activity at 0.1 µM / activity at 1 µM / activity at 10 µM / IC50: Homo sapiens; for activity at 0.1 µM / activity at 1 µM / activity at 10 µM / MMTV-LUC activity (%) DHT+: with DHT, control = 100; for IC50: AR transcriptional activity
Protocol: as §1, §2

Compound: COC(=O)[C@@]12OC[C@]34[C@H]([C@@H](O)[C@@H]1O)[C@@]1(C)CC(=O)C(O)=C(C)[C@@H]1C[C@H]3OC(=O)[C@H](OC(=O)CC(C)C)[C@@H]24 [Bruceine A, bruceine A]
IC50 ([1]; LNCaP): 15 nM
activity at 0.1 µM ([2]; 0.1 uM): 19.5 ± 20.7%
activity at 1 µM ([2]; 1 uM): 13.5 ± 1.7%
activity at 10 µM ([2]; 10 uM): 11 ± 2.5%
IC50 [2]: 14.3 nM
potency as inhibitor of AR/AR-V7 transcriptional activity compared with ailanthone [2]: more potent inhibitors against AR/AR-V7 transcriptional activity
IC50 (22RV1 cells; 22Rv1, 72 h): 16.5 nM
activity at 0.1 µM ([3]; 0.1 uM): 5.7 ± 1%
activity at 1 µM ([3]; 1 uM): 3.6 ± 0.2%
activity at 10 µM ([3]; 10 uM): 2.8 ± 0.2%
IC50 [3]: 9.45 nM

IC50 ([1]; LNCaP cells): 11.7 nM
IC50 [2]: 14 nM
IC50 (22RV1 cells; 22RV1 cells, MTT, 72 hours): 15.1 nM
IC50 [3]: 6.23 nM
Compound: COC(=O)[C@@]12OC[C@]34[C@H]([C@@H](O)[C@@H]1O)[C@@]1(C)CC(=O)C(O)=C(C)[C@@H]1C[C@H]3OC(=O)[C@H](OC(=O)C=C(C)C)[C@@H]24 [Brusatol, brusatol]
activity at 0.1 µM ([2]; 0.1 uM): 18.9 ± 20.2%
activity at 1 µM ([2]; 1 uM): 14 ± 1.3%
activity at 10 µM ([2]; 10 uM): 10.3 ± 2.7%
potency as inhibitor of AR/AR-V7 transcriptional activity compared with ailanthone [2]: more potent inhibitors against AR/AR-V7 transcriptional activity
activity at 0.1 µM ([3]; 0.1 uM): 5.7 ± 0.6%
activity at 1 µM ([3]; 1 uM): 4 ± 0.5%
activity at 10 µM ([3]; 10 uM): 3.2 ± 0.2%

Compound: Yadanziolide C
MMTV-LUC activity (%) DHT− ([2]; 0.1 uM): 80.5 ± 2.9%
MMTV-LUC activity (%) DHT− ([2]; 1 uM): 17.4 ± 3.1%
MMTV-LUC activity (%) DHT− ([2]; 10 uM): 6.0 ± 0.7%
MMTV-LUC activity (%) DHT+ ([3]; 0.1 uM): 92.5 ± 0.9%
MMTV-LUC activity (%) DHT+ ([3]; 1 uM): 12.1 ± 2.0%
MMTV-LUC activity (%) DHT+ ([3]; 10 uM): 1.1 ± 0.1%
